35 compounds from PubChem BioAssay (NCI) can be followed below.

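Five compound concentrations were applied to cells in 96-well plates for 48 hours; endpoints were derived by simple linear interpolation of the resulting dose-response curve. Definition used: TGI = concentration required for complete inhibition of growth.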

The first experiment deals with NCI/ADR-RES ovarian. Nature of the experiment: inhibition of tumour cell growth, NCI panel, 48 h.
`COC(=O)[C@@H]1[C@H](OC(C)=O)CCC2[C@@]3(C[C@@H](c4ccoc4)O[C@@H]3OC)[C@H](C)CC[C@]21C(=O)OC` (stereo partly specified) had a TGI greater than 25 µM.
Still for that read-out and setting: the value for `Cc1n[nH]c(=O)n1N1C(=O)CCCC1=O` was greater than 100 µM; that for `CCN1CCC(C)OP1(=O)Cc1ccccc1` (stereo unspecified) was greater than 100 µM; that for `COCc1nc(N)nc(N2N=C(C)CC2(C)C)n1` was greater than 100 µM.
The compound `CC(C)(C)OC(=O)NC(Cc1ccccc1)OCc1ccccc1` (stereo unspecified) showed a TGI of 70.7 µM.
The same measure, in the same setting: the value for `CNC(=O)C1(N)c2ccccc2C=Cc2ccccc21` was greater than 100 µM; that for `CCOC(=O)C1C(c2ccc3c(c2)OCO3)c2c([nH][nH]c2=O)CC1(C)O` (stereo unspecified) was greater than 100 µM; that for `O=C(NC1CCCCC1NC(c1ccccc1)(c1ccccc1)c1ccccc1)C(=O)NC1CCCCC1NC(c1ccccc1)(c1ccccc1)c1ccccc1` (stereo unspecified) was greater than 100 µM.
The compound `O=C(c1ccccc1)c1ccc2nc(-c3c(Cl)c(Cl)c(Cl)c(Cl)c3C(=O)N/N=C/c3ccc(Cl)cc3)[nH]c2c1` registered a TGI greater than 100 µM.
`CC(=O)c1ccc2c(c1)CC1(C2)Cc2cc3c(cc2C1=O)CCC3` (stereo unspecified) gave a TGI of 39.4 µM.
`CCc1nn(CN2CCOCC2)c(=S)n1/N=C/c1ccc(-c2ccc(Cl)cc2)o1` had a TGI greater than 100 µM.
Same read-out and setting: then `CSc1nc2c(c(=O)[nH]1)N=C(c1ccc([N+](=O)[O-])cc1)CC(c1ccccc1)N2` (stereo unspecified), with greater than 100 µM; and `C/C(=N\Nc1ccc([N+](=O)[O-])cc1[N+](=O)[O-])c1sc(-n2nc(-c3ccccc3)cc2-c2ccccc2)nc1C`, with 69.8 µM; and `COc1cc(C2SCC(=O)N2c2cccc(Cl)c2)cc(OC)c1OC` (stereo unspecified), with greater than 100 µM.
Same read-out and setting: then `CS(=O)(=O)OCC1CN(S(C)(=O)=O)c2cc(O)ccc21` (stereo unspecified), with 19.9 µM; and `COC1/C=C/C(C)C(C(C)C(OC)C(C)CCC(=O)C(C)C(C/C=C/N(C)C=O)OC)OC(=O)C=CC2OC2(C)CC(OC)C(OC)C2=CC(=O)O[C@@H](C(C)C(OC)CC(OC)/C=C/C(C)C(O)C1)[C@H]2O` (stereo partly specified), with 0.263 µM.
Same read-out and setting: then `C=C(Br)CNC(=O)Nc1ccc(Cl)c(Cl)c1`, with 43.6 µM; and `O=c1[nH]cc(-c2c[nH]c3ccccc23)nc1-c1c[nH]c2ccccc12`, with 49.8 µM.
`Nc1n[n+](CC(=O)c2ccccc2)c2sc(-c3ccccc3)nn12` gave a TGI greater than 100 µM.
`CCC(C=O)P1(=O)OC(C)(C)CN1C(C)(C)C` (stereo unspecified) gave a TGI greater than 100 µM.
Still for that read-out and setting: then `CC1CC(C)C(C#N)N(C)c2ccccc21` (stereo unspecified), with greater than 100 µM; and `O=C(O)C12C3CCC(CC3)C1(C(=O)O)C1CCC2C1` (stereo unspecified), with greater than 100 µM; and `NC(N)=NCCCC(NC(=O)c1cccc2c(=O)c3ccccc3[nH]c12)C(=O)O` (stereo unspecified), with greater than 100 µM.
As to `O=C(NNCC(O)COc1ccccc1)c1ccccc1` (stereo unspecified), the TGI is greater than 100 µM.
In turn, `O=S1(=O)OCCOS(=O)(=O)C1(F)Br` gave a TGI greater than 100 µM.
Same read-out and setting: the value for `COC(=O)[C@H](CCSC)NC(=O)N[C@H](C)c1ccccc1` was greater than 100 µM.
`C=CC[C@@H](N)C(=O)N(C)[C@@H](C)[C@@H](O)c1ccccc1` had a TGI greater than 100 µM.
In turn, `N#Cc1sc2c(c1OC(=O)c1ccccc1)c(=O)n(-c1ccccc1)c(=S)n2-c1ccccc1` displayed a TGI of 49.3 µM.
The same measure, in the same setting: then `Cc1cc(C)c(-n2[nH]c(=O)n(C)c2=O)c(C)c1`, with greater than 100 µM; and `O=C(NC1=C(Cl)C(=O)c2ccccc2C1=O)c1ccc(F)cc1`, with 14.8 µM.
On the same count and under the same terms, the value for `CO/C(=N\N=C\c1ccc(OC)c(OC)c1)c1ccncc1` was greater than 10 µM; that for `COc1cc2c(c(OC)c1)/C(=C/Sc1ccccc1)C(=O)N(C(C)(C)C)C2` was 56.7 µM; that for `CCC(CCCN)Nc1cc(OC)cc2c(C)ccnc12` (stereo unspecified) was 76.4 µM.
Regarding `CC(C)(C)OC(=O)N/N=C(/N)Cc1ccc(Cl)cc1`, the TGI was greater than 100 µM.

A further experiment relates to HOP-92 NSCLC. Nature of the experiment: inhibition of tumour cell growth, NCI panel, 48 h.
`COC(=O)[C@@H]1[C@H](OC(C)=O)CCC2[C@@]3(C[C@@H](c4ccoc4)O[C@@H]3OC)[C@H](C)CC[C@]21C(=O)OC` (stereo partly specified) displayed a TGI greater than 25 µM.
Still for that read-out and setting: the value for `COCc1nc(N)nc(N2N=C(C)CC2(C)C)n1` was greater than 100 µM; that for `CNC(=O)C1(N)c2ccccc2C=Cc2ccccc21` was greater than 100 µM.
`CCOC(=O)C1C(c2ccc3c(c2)OCO3)c2c([nH][nH]c2=O)CC1(C)O` (stereo unspecified) came in with a TGI greater than 100 µM.
Consider `O=C(NC1CCCCC1NC(c1ccccc1)(c1ccccc1)c1ccccc1)C(=O)NC1CCCCC1NC(c1ccccc1)(c1ccccc1)c1ccccc1` (stereo unspecified), for which the TGI is 60.5 µM.
Still for that read-out and setting: the value for `O=C(c1ccccc1)c1ccc2nc(-c3c(Cl)c(Cl)c(Cl)c(Cl)c3C(=O)N/N=C/c3ccc(Cl)cc3)[nH]c2c1` was greater than 100 µM.
The same measure, in the same setting: then `CC(=O)c1ccc2c(c1)CC1(C2)Cc2cc3c(cc2C1=O)CCC3` (stereo unspecified), with 65.5 µM.
The same measure, in the same setting: the value for `CCc1nn(CN2CCOCC2)c(=S)n1/N=C/c1ccc(-c2ccc(Cl)cc2)o1` was greater than 100 µM; that for `CSc1nc2c(c(=O)[nH]1)N=C(c1ccc([N+](=O)[O-])cc1)CC(c1ccccc1)N2` (stereo unspecified) was greater than 100 µM.
As to `C/C(=N\Nc1ccc([N+](=O)[O-])cc1[N+](=O)[O-])c1sc(-n2nc(-c3ccccc3)cc2-c2ccccc2)nc1C`, the TGI was determined as 77.4 µM.
The same measure, in the same setting: the value for `COc1cc(C2SCC(=O)N2c2cccc(Cl)c2)cc(OC)c1OC` (stereo unspecified) was greater than 100 µM; that for `CS(=O)(=O)OCC1CN(S(C)(=O)=O)c2cc(O)ccc21` (stereo unspecified) was 7.08 µM.
Same read-out and setting: the value for `COC1/C=C/C(C)C(C(C)C(OC)C(C)CCC(=O)C(C)C(C/C=C/N(C)C=O)OC)OC(=O)C=CC2OC2(C)CC(OC)C(OC)C2=CC(=O)O[C@@H](C(C)C(OC)CC(OC)/C=C/C(C)C(O)C1)[C@H]2O` (stereo partly specified) was 0.0235 µM.
On the same count and under the same terms, then `C=C(Br)CNC(=O)Nc1ccc(Cl)c(Cl)c1`, with 41.2 µM; and `O=c1[nH]cc(-c2c[nH]c3ccccc23)nc1-c1c[nH]c2ccccc12`, with 33.3 µM; and `NC(N)=NCCCC(NC(=O)c1cccc2c(=O)c3ccccc3[nH]c12)C(=O)O` (stereo unspecified), with greater than 100 µM.
Compound `O=C(NNCC(O)COc1ccccc1)c1ccccc1` (stereo unspecified) yielded a TGI greater than 100 µM.
Same read-out and setting: then `COC(=O)[C@@H]1CC(C(C[N+](=O)[O-])c2ccc(O[Si](C)(C)C(C)(C)C)cc2)C(=O)N1C(=O)OC(C)(C)C` (stereo partly specified), with greater than 100 µM; and `COC(=O)[C@H](CCSC)NC(=O)N[C@H](C)c1ccccc1`, with greater than 100 µM.
Compound `C=CC[C@@H](N)C(=O)N(C)[C@@H](C)[C@@H](O)c1ccccc1` had a TGI greater than 100 µM.
The same measure, in the same setting: the value for `O=C(NC1=C(Cl)C(=O)c2ccccc2C1=O)c1ccc(F)cc1` was 3.34 µM.
In turn, `CO/C(=N\N=C\c1ccc(OC)c(OC)c1)c1ccncc1` showed a TGI greater than 10 µM.
Still for that read-out and setting: the value for `COc1cc2c(c(OC)c1)/C(=C/Sc1ccccc1)C(=O)N(C(C)(C)C)C2` was 38.8 µM; that for `CCC(CCCN)Nc1cc(OC)cc2c(C)ccnc12` (stereo unspecified) was 30.6 µM.

Another experiment relates to SF-268 CNS. Put plainly: inhibition of tumour cell growth, NCI panel, 48 h.
The compound `COC(=O)[C@@H]1[C@H](OC(C)=O)CCC2[C@@]3(C[C@@H](c4ccoc4)O[C@@H]3OC)[C@H](C)CC[C@]21C(=O)OC` (stereo partly specified) gave a TGI greater than 25 µM.
`Cc1n[nH]c(=O)n1N1C(=O)CCCC1=O` came in with a TGI greater than 100 µM.
In turn, `CCN1CCC(C)OP1(=O)Cc1ccccc1` (stereo unspecified) showed a TGI greater than 100 µM.
